US4489091A, “Antilipemic and anti-inflammatory compositions containing sulfonate derivatives” (Taiho Pharmaceutical Company Limited, priority 1980, dated 1984)
Read-outs that look alike come from different tables or passages of the source.

Tests used:
triglycerides = assay: Antilipemic effect: percent triglycerides inhibition in plasma of rats given an olive oil-cholesterol mixture; format: in vivo, male Wistar rats; conditions: for inhibition in vivo at 200 mg/kg: read-out: Anti-lipemic effect, TG (percent triglycerides inhibition), asterisked; for inhibition in vivo at 100 mg/kg: oral 100 mg/kg, read-out: Anti-lipemic effect, TG (percent triglycerides inhibition)
Protocol: (§1) The above compounds of this invention are tested by the following methods for antilipemic effect and acute toxicity. In the column of antilipemic effect in the table, the asterisked values indicate the effect achieved by orally giving 200 mg/kg of the compounds concerned, and the unmarked values, the effect attained by orally giving 100 mg/kg. In the same column, "TG" stands for percent triglycerides inhibition and "CS" percent cholesterol inhibition.
(§2) Seven-week-old male Wistar rats weighing 200 to 220 g are used, 5 rats in each group.
(§3) Each compound of the invention (100 mg or 200 mg) is dissolved in 10 ml of an olive oil-cholesterol mixture (containing 15% of cholesterol). The mixture containing the compound is orally given to the rat with a probe at a dose of 10 ml/kg. Two or 8 hours thereafter, 6 ml of whole blood is withdrawn from the descending aorta of the rat under ether anesthesia with a syringe containing heparin. The blood is centrifuged at 5° C. and 3000 r.p.m. to obtain the plasma. The plasma collected after the lapse of 2 hours is used for determining the triglycerides content, and the plasma obtained 8 hours later for determining the total cholesterol content, using a triglycerides measuring kit (trade mark "Triglycerides-B Test Wako," product of Wako Junyaku Co., Ltd., Japan) and a total cholesterol measuring kit (trade mark "Cholesterol Test Wako," product of the same), respectively. The olive oil-cholesterol mixture containing no compound is similarly given to a control group, while no treatment is conducted for a normal group. The triglycerides and total cholesterol contents in the plasma are also determined for these groups in the same manner as is the case with the test groups.
(§4) The present hyperlipidemia inhibition achieved by the present compound is given by [formula] in which A is the triglycerides (cholesterol) content of the control group, B is the triglycerides (cholesterol) content of the normal group, and C is the triglycerides (cholesterol) content of the group to which the present compound is given.

cholesterol = assay: Antilipemic effect: percent total cholesterol inhibition in plasma of rats given an olive oil-cholesterol mixture; format: in vivo, male Wistar rats; conditions: oral 100 mg/kg, plasma 8 hours after dosing, Wistar rat; read-out: Anti-lipemic effect, CS (percent cholesterol inhibition)
Protocol: as §1, §2, §3, §4

Acute toxicity = conditions: rat, in vivo
Description: Six-week-old male Wistar rats weighing 180 to 200 g are used, 5 rats in each group. Each compound of the invention is suspended in a 30% aqueous solution of polyethylene glycol 6000 and orally given to the rat at the dosage shown in Table 2. The animals are checked for poisoning, body weight and survival to determine the LD50 value.

[1] = oral 200 mg/kg (asterisked values), plasma 2 hours after dosing, Wistar rat
[2] = plasma 2 hours after dosing, Wistar rat
[3] = oral, six-week-old male Wistar rats, suspended in 30% aqueous polyethylene glycol 6000, read-out: LD50

Structure (SMILES)	inhibition in vivo at 200 mg/kg (triglycerides; [1]) [%]	inhibition in vivo at 100 mg/kg (triglycerides; [2]) [%]	LD50 (Acute toxicity; po) [mg/kg]	further results
CCCC(=O)COS(=O)(=O)CCCOCC [Compound 2]	65	–	–	–
CCCC(=O)COS(=O)(=O)C1CCCCC1 [Compound 3]	51	–	–	–
CCCC(=O)COS(=O)(=O)Cc1ccccc1 [Compound 4]	–	68	–	inhibition in vivo at 100 mg/kg (cholesterol): 52%
CCCC(=O)COS(=O)(=O)c1ccccc1 [Compound 6, 2-oxopentylbenzene sulfonate]	–	90	–	LD50 (Acute toxicity; [3]): > 1000 mg/kg; inhibition in vivo at 100 mg/kg (cholesterol): 53%
CCCCC(=O)COS(=O)(=O)c1ccccc1 [Compound 7]	–	98	–	inhibition in vivo at 100 mg/kg (cholesterol): 67%
CC=CC(=O)COS(=O)(=O)c1ccccc1 [Compound 13]	–	72	–	–
CCCCCCCCCC(=O)COS(=O)(=O)c1ccc(C)cc1 [Compound 22]	62	–	> 3000	–
CCCCCCCCCCC(=O)COS(=O)(=O)c1ccc(C)cc1 [Compound 23]	64	–	> 3000	–
CCCCCCCCCCCCC(=O)COS(=O)(=O)c1ccc(C)cc1 [Compound 24]	63	–	> 3000	–
CCCCCCCCCCCCCCC(=O)COS(=O)(=O)c1ccc(C)cc1 [Compound 25]	62	–	> 3000	–
Cc1ccccc1S(=O)(=O)OCC(=O)CCCCCCC(C)C [Compound 33]	67	–	> 3000	–
CCCCCCCCCCCC(=O)COS(=O)(=O)c1ccc(OC)cc1 [Compound 39]	58	–	> 4000	–
C=CCCCCCCCCC(=O)COS(=O)(=O)c1ccc(OC)cc1 [Compound 42]	57	–	> 4000	–
CCCCOc1ccc(S(=O)(=O)OCC(=O)CCCC)cc1 [Compound 54]	–	48	> 2000	–
CCCCCCCCCC(=O)COS(=O)(=O)c1ccc(OCCCC)cc1 [Compound 57]	52	–	> 4000	–
CCCCOc1ccc(S(=O)(=O)OCC(=O)CCC(C)C)cc1 [Compound 58]	61	–	> 4000	–
CCCC(=O)COS(=O)(=O)c1ccc(O)cc1 [Compound 59]	–	70	> 3000	–
CCCCCC(=O)COS(=O)(=O)c1ccc(O)cc1 [Compound 60]	–	83	> 3000	–
CCCCCCCCC(=O)COS(=O)(=O)c1ccc(O)cc1 [Compound 61]	–	67	> 3000	–
CCC(C)C(=O)COS(=O)(=O)c1ccc(O)cc1 (stereo not drawn) [Compound 63]	–	76	> 2000	–
CCCCCCC(=O)COS(=O)(=O)c1ccc(Cl)cc1 [Compound 67]	–	80	> 2000	–
CCCCCCCCCC(=O)COS(=O)(=O)c1ccc(Cl)cc1 [Compound 68, 2-oxo-undecyl-p-chlorobenzene sulfonate]	–	62	–	LD50 (Acute toxicity; [3]): > 3000 mg/kg
CCCCCCCCCCC(=O)COS(=O)(=O)c1ccc(Cl)cc1 [Compound 69]	77	–	> 3000	–
CC(=O)COS(=O)(=O)c1c(C)cc(C)cc1C [Compound 71]	–	60	–	inhibition in vivo at 100 mg/kg (cholesterol): 82%
CCCCCCCCCC(=O)COS(=O)(=O)c1c(C)cc(C)cc1C [Compound 79]	61	–	> 4000	–
CCCCCCCCCCCC(=O)COS(=O)(=O)c1c(C)cc(C)cc1C [Compound 81]	60	–	> 4000	–

Structure (SMILES)	inhibition in vivo at 200 mg/kg (triglycerides; [1]) [%]	inhibition in vivo at 100 mg/kg (triglycerides; [2]) [%]	LD50 (Acute toxicity; po) [mg/kg]	further results
CCCCC(CC)C(=O)COS(=O)(=O)c1c(C)cc(C)cc1C (stereo not drawn) [Compound 84]	–	59	> 4000	–
Cc1cc(C)c(S(=O)(=O)OCC(=O)CCCCCCC(C)C)c(C)c1 [Compound 85]	–	48	> 4000	–
CCCCC=CCC(=O)COS(=O)(=O)c1c(C)cc(C)cc1C [Compound 87]	57	–	–	–
C=CCCCCCCCCC(=O)COS(=O)(=O)c1c(C)cc(C)cc1C [Compound 88]	66	–	> 4000	–
CCCC(=O)COS(=O)(=O)c1c(C)c(C)cc(C)c1C [Compound 89]	56	–	> 3000	–
CCCCCCCC(=O)COS(=O)(=O)c1c(C)c(C)cc(C)c1C [Compound 91]	47	–	> 3000	–
CCCCCCCCCCC(=O)COS(=O)(=O)c1c(C)c(C)cc(C)c1C [Compound 92]	43	–	–	LD50 (Acute toxicity; [3]): > 3000 mg/kg
C=CCCC(=O)COS(=O)(=O)c1c(C)c(C)cc(C)c1C [Compound 93]	60	–	> 3000	–
Cc1cc(C)c(C)c(S(=O)(=O)OCC(=O)CCCCCCC(C)C)c1C [Compound 94]	51	–	> 3000	–
CCCC(=O)COS(=O)(=O)c1cccc(C(=O)O)c1 [Compound 102]	42	–	> 3000	–
CCCC(=O)COS(=O)(=O)c1ccc(NC(C)=O)cc1 [Compound 103]	51	–	> 3000	–
CCCCCCCCCCCCc1ccc(S(=O)(=O)OCC(=O)CCC)cc1 [Compound 104]	56	–	> 3000	–
CCCC(=O)COS(=O)(=O)c1ccccc1C1OCCO1 [Compound 105]	55	–	> 3000	–
CCCC(=O)COS(=O)(=O)c1ccc([N+](=O)[O-])cc1 [Compound 106]	60	–	–	–
CCCC(=O)COS(=O)(=O)c1cc(Cl)ccc1Cl [Compound 107]	–	75	> 1500	–
CCCC(=O)COS(=O)(=O)c1ccc(C)c(Cl)c1 [Compound 108]	–	64	> 1500	–
CCCC(=O)COS(=O)(=O)c1ccc(Cl)cc1O [Compound 109]	82	–	> 2000	–
CCCC(=O)COS(=O)(=O)c1ccc(O)c(OC)c1 [Compound 110]	–	70	–	–
CCCC(=O)COS(=O)(=O)c1cc(Cl)c(Cl)cc1Cl [Compound 113]	–	60	> 1500	–
CCCC(=O)COS(=O)(=O)c1c(C(C)C)cc(C(C)C)cc1C(C)C [Compound 115]	67	–	> 3000	–
CCCC(=O)COS(=O)(=O)c1c(C)c(C)c(C)c(C)c1C [Compound 118]	76	–	> 3000	–
CCCC(=O)COS(=O)(=O)c1cc(Br)ccc1OC [Compound 119]	–	67	> 2000	–
CCCC(C)CC(=O)COS(=O)(=O)c1ccc(OCC)cc1 (stereo not drawn) [Compound 142]	–	47	> 4000	–
CCOc1ccc(S(=O)(=O)OCC(=O)CCC(CC)CC)cc1 [Compound 144]	–	–	–	inhibition in vivo at 200 mg/kg (triglycerides; Rattus norvegicus, po, 2 h): 55%; LD50 (Acute toxicity; [3]): > 4000 mg/kg
CCOc1ccc(S(=O)(=O)OCC(=O)CCC2CCCCC2)cc1 [Compound 174]	–	–	–	TG (percent triglycerides inhibition), Table 3 (triglycerides; Table 3, dose not given): 100%
